The record followed here is the kinase profiling compilation of Christmann-Franck et al. (2016).

For experiment [1], the target named is EIF2AK3 (human) (UniProt Q9NZJ5). As to the kind of experiment: IMAP-FP.
For experiment [2], the target named is EIF2AK2 (human) (UniProt P19525). Nature of the experiment: IMAP-FP.
For experiment [3], the target named is LCK (human) (UniProt P06239). As to the kind of experiment: Caliper, Mobility shift assay off-chip.
The target in experiment [4] is EGFR (human) (UniProt P00533). Nature of the experiment: Caliper, Mobility shift assay off-chip.
Sequence of EGFR (human) (P00533 whole entry, looked up): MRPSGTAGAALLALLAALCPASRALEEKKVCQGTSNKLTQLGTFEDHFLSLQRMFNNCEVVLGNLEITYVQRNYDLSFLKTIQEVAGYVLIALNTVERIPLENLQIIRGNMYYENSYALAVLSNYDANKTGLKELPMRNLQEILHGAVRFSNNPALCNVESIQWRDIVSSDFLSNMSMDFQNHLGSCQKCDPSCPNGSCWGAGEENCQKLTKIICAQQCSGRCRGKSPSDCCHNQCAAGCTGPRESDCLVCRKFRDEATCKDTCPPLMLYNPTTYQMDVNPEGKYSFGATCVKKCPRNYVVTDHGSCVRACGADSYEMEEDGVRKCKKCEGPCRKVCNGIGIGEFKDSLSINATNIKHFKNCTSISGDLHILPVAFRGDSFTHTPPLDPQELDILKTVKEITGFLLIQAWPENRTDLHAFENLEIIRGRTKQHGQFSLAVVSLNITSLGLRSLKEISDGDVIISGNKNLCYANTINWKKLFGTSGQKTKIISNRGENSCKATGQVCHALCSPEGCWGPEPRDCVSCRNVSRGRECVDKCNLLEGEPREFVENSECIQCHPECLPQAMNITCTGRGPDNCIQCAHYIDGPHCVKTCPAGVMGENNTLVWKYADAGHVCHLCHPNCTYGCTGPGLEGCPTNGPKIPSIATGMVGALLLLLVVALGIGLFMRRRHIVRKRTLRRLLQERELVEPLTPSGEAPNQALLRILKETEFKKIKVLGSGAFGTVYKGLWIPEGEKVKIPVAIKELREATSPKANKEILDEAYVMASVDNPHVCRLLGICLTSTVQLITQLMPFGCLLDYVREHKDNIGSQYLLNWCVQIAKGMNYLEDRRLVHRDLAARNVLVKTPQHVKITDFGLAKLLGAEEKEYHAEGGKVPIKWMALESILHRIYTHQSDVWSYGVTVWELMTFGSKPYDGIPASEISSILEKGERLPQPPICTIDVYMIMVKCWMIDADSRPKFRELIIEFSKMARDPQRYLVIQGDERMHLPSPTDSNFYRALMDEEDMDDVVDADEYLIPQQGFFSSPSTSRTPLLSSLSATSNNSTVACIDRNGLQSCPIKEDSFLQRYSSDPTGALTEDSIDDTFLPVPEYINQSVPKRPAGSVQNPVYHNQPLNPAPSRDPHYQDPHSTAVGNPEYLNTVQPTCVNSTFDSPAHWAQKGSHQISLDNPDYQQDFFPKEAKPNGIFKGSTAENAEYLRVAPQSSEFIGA
Experiment [5] deals with ABL1 (human) (UniProt P00519). As to the kind of experiment: Caliper, Mobility shift assay off-chip.
Sequence of ABL1 (human) (P00519 whole entry, looked up): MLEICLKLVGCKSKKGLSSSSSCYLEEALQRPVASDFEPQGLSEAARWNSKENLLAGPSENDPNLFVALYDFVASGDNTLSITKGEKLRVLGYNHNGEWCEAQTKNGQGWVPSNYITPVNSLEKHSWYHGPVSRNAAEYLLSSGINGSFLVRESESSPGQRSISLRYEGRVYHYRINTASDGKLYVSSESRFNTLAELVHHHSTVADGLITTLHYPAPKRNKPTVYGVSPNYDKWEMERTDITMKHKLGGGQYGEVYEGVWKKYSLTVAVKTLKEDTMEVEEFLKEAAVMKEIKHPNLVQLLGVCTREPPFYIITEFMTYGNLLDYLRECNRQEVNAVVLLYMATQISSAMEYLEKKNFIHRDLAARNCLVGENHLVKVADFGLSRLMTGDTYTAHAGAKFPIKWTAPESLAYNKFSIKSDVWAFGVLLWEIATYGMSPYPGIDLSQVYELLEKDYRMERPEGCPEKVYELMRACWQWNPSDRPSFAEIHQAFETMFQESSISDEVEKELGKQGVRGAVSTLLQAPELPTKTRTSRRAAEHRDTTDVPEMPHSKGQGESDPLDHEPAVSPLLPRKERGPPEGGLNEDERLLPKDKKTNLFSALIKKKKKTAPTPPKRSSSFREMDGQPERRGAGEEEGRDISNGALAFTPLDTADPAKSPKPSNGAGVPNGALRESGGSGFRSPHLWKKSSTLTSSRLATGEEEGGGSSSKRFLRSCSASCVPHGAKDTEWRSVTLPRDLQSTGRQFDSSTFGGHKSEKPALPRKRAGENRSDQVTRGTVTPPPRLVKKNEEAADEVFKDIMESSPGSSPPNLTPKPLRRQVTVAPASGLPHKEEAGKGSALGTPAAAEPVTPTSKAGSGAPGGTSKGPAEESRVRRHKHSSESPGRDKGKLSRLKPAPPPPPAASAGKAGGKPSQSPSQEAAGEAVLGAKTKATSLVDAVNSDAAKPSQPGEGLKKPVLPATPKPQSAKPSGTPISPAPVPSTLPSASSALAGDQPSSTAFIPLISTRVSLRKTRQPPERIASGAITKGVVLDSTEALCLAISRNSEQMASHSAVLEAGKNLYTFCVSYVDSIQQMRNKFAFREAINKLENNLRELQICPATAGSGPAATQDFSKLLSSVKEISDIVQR

Sequence of EIF2AK2 (human) (P19525 whole entry, looked up): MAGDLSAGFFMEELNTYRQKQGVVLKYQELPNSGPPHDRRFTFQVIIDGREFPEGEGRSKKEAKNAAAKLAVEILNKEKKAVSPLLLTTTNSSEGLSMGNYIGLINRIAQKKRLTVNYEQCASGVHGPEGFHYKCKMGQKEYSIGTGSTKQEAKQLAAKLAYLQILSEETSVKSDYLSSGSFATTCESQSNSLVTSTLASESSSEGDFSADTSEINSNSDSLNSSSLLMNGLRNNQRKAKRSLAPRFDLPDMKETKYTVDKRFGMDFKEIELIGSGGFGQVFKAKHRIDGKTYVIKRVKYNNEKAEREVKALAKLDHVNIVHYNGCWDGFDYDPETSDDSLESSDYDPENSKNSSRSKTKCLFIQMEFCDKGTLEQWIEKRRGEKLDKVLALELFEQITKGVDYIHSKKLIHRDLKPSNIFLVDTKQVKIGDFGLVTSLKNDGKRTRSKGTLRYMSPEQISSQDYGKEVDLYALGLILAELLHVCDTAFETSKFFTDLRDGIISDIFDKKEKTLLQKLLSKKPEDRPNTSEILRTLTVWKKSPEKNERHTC
Sequence of LCK (human) (P06239 whole entry, looked up): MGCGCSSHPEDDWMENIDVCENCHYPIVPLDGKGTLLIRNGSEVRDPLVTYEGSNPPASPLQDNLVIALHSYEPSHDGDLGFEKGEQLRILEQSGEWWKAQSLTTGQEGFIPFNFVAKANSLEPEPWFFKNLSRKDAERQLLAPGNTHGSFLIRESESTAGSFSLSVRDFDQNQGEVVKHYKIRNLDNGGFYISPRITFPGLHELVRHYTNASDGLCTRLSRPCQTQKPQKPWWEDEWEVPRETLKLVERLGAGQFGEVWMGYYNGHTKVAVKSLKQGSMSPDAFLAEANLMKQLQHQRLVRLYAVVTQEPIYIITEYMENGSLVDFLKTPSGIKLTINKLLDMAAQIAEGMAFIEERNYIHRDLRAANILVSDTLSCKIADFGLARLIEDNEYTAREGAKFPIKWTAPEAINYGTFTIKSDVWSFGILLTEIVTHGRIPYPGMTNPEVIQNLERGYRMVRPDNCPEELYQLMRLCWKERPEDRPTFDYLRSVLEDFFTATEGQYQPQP
Sequence of EIF2AK3 (human) (Q9NZJ5 whole entry, looked up): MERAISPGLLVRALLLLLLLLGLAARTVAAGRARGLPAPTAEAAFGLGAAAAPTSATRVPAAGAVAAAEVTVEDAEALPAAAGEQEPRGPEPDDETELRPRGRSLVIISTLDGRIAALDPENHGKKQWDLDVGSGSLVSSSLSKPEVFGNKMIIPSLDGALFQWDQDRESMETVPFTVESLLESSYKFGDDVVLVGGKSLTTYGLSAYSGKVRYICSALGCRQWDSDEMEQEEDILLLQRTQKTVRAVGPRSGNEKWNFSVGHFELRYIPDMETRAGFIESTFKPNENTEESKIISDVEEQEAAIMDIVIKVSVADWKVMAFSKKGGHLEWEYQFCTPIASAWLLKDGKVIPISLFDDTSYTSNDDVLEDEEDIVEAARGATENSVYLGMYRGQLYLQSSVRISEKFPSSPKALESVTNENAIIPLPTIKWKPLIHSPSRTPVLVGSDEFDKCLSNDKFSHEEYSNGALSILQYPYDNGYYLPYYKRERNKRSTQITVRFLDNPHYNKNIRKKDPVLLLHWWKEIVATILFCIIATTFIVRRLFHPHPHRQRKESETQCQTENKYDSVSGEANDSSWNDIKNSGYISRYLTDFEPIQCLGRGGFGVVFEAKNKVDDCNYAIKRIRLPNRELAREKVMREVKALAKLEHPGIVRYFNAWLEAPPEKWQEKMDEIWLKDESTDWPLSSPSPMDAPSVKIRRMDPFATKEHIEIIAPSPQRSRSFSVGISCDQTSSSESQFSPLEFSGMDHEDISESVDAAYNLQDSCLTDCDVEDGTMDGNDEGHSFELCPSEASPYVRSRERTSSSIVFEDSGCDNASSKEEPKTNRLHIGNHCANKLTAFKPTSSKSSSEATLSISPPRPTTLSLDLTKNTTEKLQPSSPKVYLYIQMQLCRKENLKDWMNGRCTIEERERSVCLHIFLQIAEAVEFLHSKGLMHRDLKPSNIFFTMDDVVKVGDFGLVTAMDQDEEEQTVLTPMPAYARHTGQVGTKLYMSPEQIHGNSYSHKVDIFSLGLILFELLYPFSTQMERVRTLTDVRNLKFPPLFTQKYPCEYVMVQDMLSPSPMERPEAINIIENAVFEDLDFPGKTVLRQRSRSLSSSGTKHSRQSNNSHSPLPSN

What is called inhibition is the drop in the measured response relative to a control, in per cent. On to `CNC(=O)c1ccccc1Sc1ccc2c(/C=C/c3ccccn3)n[nH]c2c1`, for which the inhibition is -16.9% in experiment [1] (compound 0.001 µM), -10.8% in experiment [1] (compound 0.02 µM), -26.3% in experiment [2] (compound 0.001 µM) and -20.8% in experiment [2] (compound 0.02 µM).

With `CNC(=O)c1cc(Oc2ccc(NC(=O)Nc3ccc(Cl)c(C(F)(F)F)c3)cc2)ccn1`, the inhibition was -23.9% in experiment [1] (compound 0.02 µM), 4.5% in experiment [1] (compound 0.2 µM), -12.3% in experiment [2] (compound 0.02 µM) and -14.3% in experiment [2] (compound 0.2 µM).

For the molecule `Cc1ccc(Nc2nccc(N(C)c3ccc4c(C)n(C)nc4c3)n2)cc1S(N)(=O)=O`, the inhibition in experiment [3] (compound 0.02 µM) is 7%; in experiment [3] (compound 0.2 µM), 44.1%; in experiment [4] (compound 0.2 µM) it was -1.3%; in experiment [1] (compound 0.02 µM) it was -15%; in experiment [1] (compound 0.2 µM), -17%.

Regarding `COc1cc2c(Oc3ccc4[nH]c(C)cc4c3F)ncnc2cc1OCCCN1CCCC1`, the inhibition in experiment [5] (compound 0.02 µM) turned out to be 24.1%; in experiment [5] (compound 0.2 µM), 58.9%; in experiment [3] (compound 0.02 µM), 23%; in experiment [3] (compound 0.2 µM), 72.7%; in experiment [4] (compound 0.02 µM), 30.6%; in experiment [4] (compound 0.2 µM) it was 78.4%. The inhibition was -18% in experiment [1] (compound 0.02 µM), -16.8% in experiment [1] (compound 0.2 µM), -13.8% in experiment [2] (compound 0.02 µM) and -6.6% in experiment [2] (compound 0.2 µM).

In the case of `CCN(CC)CCNC(=O)c1c(C)[nH]c(/C=C2\C(=O)Nc3ccc(F)cc32)c1C`, the inhibition in experiment [1] (compound 0.2 µM) is -15%; in experiment [1] (compound 4.0 µM), -5.4%; in experiment [2] (compound 0.2 µM) it was 29.1%; in experiment [2] (compound 4.0 µM), 88.4%.
